Test results reported in patent US20160160234A1, “COMPOSITION FOR TRANSFERRING GENE TO CELL” (ISHIHARA SANGYO KAISHA, LTD., priority 2013, published 2016).

Legend:
NIH-3T3 cells = assay: Luciferase gene expression after transfection with pCMV-GL3 plasmid (ONE-Glo Luciferase Assay System); assay type: cell-based
Experimental: NIH-3T3 cells, which are adherent cultured cells, were seeded in a 96-well plate at a cell density of 4×10^3 cells/well one day before transfection.
16.8 μL of a 5 mg/mL sericin PBS solution was added to 1.2 μL of a ¼% sorbitan sesquioleate (Nacalai Tesque, Inc.) ethanol solution, and the mixture was mixed by pipetting.
16.8 μL of a 5 mg/mL sericin PBS solution was added to 1.2 μL of a ¼% sorbitan monooleate (SIGMA) ethanol solution, and the mixture was mixed by pipetting.
0.6 μL of a ⅕% L-α-dioleoyl phosphatidylethanolamine (Wako Pure Chemical Industries, Ltd.; hereinafter referred to as “DOPE”) ethanol solution or 0.6 μL of ethanol was individually added to 0.6 μL of a ⅕% cardiolipin (SIGMA) ethanol solution. 16.8 μL of a 5 mg/mL sericin PBS solution was further added to each mixture, and each of the resulting mixtures was mixed by pipetting.
15 μL of a 1/10 mg/mL pCMV-GL3 plasmid solution was added to 18 μL of each of the above prepared solutions, and each mixture was mixed by pipetting. 7.5 μL of a 1 mg/mL protamine sulfate PBS solution was then added to each of the resulting mixtures, thereby preparing test compositions. Each of these test compositions was added at 15 μL/well to the cell culture media.
11.2 μL of ¼, ½, 3, 5, 20, 30, or 50 mg/mL sericin PBS solution or PBS was individually added to 0.8 μL of a ½% sorbitan sesquioleate (Nacalai Tesque, Inc.) ethanol solution, and each mixture was mixed by pipetting.
10 μL of a 1/10 mg/mL pCMV-GL3 plasmid solution was added to 12 μL of each of the prepared solutions above, and each mixture was mixed by pipetting.

Jurkat cells = assay: as above; conditions: Example 12, lipid ethanol solutions ¼% or ⅕%, 5 mg/mL sericin, 1 mg/mL protamine sulfate, 15 μL/well, next day
RAW264.7 cells = assay: as above; assay type: cell-based
Experimental: Gene transfer using FuGENE HD transfection reagent (Roche) was performed as follows.
Gene transfer using Polyethylenimine Max (Polyscience) was performed as follows. 13.5 μL of water was added to 1.5 μL of 1 mg/mL Polyethylenimine Max (pH of 7, MW of 25,000).

K562 cells = assay: as above; assay type: cell-based; conditions: Example 16, in combination with the composition of the present invention or Lipofectamine LTX&PLUS reagent
Experimental: The next day, whether gene transfer was achieved was confirmed by measuring the enzyme activity (relative value) of luciferase protein produced from the pCMV-GL3 plasmid by using ONE-Glo Luciferase Assay System (Promega).
K562 cells, which are suspension cultured cells, were seeded in a 96-well plate at a cell density of 2×10^4 cells/well on the day of transfection.
154 μL of a 15 mg/mL sericin PBS solution was added to 11 μL of a ½% sorbitan sesquioleate (Nacalai Tesque, Inc.) ethanol solution, and the mixture was mixed by pipetting.
48 μL of the prepared solution above was added to 40 μL of a 1/10 mg/mL pCMV-GL3 plasmid solution, and the mixture was mixed by pipetting. 20 μL of a 1 mg/mL protamine sulfate PBS solution was then added to prepare a test composition (prepared for each kind of cells; total of three tubes). The test composition was added at 15 μL/well to the cell culture media.
Gene transfer using Lipofectamine LTX&PLUS reagent (Invitrogen) was performed as follows. 0.7 μL of a 1 mg/mL pCMV-GL3 plasmid solution and 0.7 μL of a PLUS reagent were added to 140 μL of Opti-MEM I Reduced Serum Medium (Gibco), and the mixture was allowed to stand for 5 minutes. 2.8 μL of Lipofectamine LTX reagent was further added thereto, and the mixture was allowed to stand for 25 minutes, after which it was added at 20 μL/well to the cell culture media. […]

A549 cells [1] = test system: A549 cells
Experimental: A549 cells and NIH-3T3 cells, both of which are adherent cultured cells, were individually seeded in a 96-well plate at a cell density of 4×10^3 cells/well one day before transfection.
84 μL of a 10 mg/mL sericin (Wako Pure Chemical Industries, Ltd., trade name: Pure Sericin) aqueous solution was added to 6 μL of a ½% sorbitan sesquioleate (Nacalai Tesque, Inc.) ethanol solution, and the mixture was mixed by pipetting.
As a virus-derived envelope, a 47.8 HAU/μL inactivated HVJ envelope (GenomONE-CF: registered trademark, produced by Ishihara Sangyo Kaisha, Ltd.) suspension, which is derived from Sendai virus, was used in the experiment.
After 54 μL of PBS was added to 6 μL of the inactivated HVJ envelope suspension, 6 μL of a 2% Triton X-100 PBS solution was added thereto. The mixture was centrifuged at 4° C., 10,000 g for 5 minutes with a high-speed refrigerated microcentrifuge, thereby pelletting down the inactivated HVJ envelope. […] After 2.5 μL of the liquid mixture of the inactivated HVJ envelope and the pCMV-GL3 plasmid was transferred to each tube, 28 μL of a 1/20 mg/mL laminin (SIGMA) aqueous solution or water was individually added thereto, and each mixture was mixed by pipetting. […]

A549 cells [2] = assay: Gene transfer of pTurboGFP-N plasmid observed with a fluorescence microscope; assay type: cell-based; conditions: Example 1, 5 μL/well, next day, FIG. 3
THP-1 cells = assay: as above; assay type: cell-based; conditions: Example 1, 5 μL/well, next day, FIG. 3
[3] = Example 12, lipid ethanol solutions ¼% or ⅕%, 5 mg/mL sericin, 1 mg/mL protamine sulfate, 15 μL/well, next day
[4] = Example 16, in combination with the composition of the present invention or Lipofectamine LTX&PLUS reagent
[5] = Example 11, pCMV-GL3 in inactivated HVJ envelope (component F) in all compositions, 8.1 μL/well, next day

cardiolipin
Luciferase gene expression level (relative value) (NIH-3T3 cells; [3]): makes it possible to introduce a gene | Luciferase gene expression level (relative value) (Jurkat cells): makes it possible to introduce a gene

sorbitan monooleate
Luciferase gene expression level (relative value) (NIH-3T3 cells; [3]): makes it possible to introduce a gene | Luciferase gene expression level (relative value) (Jurkat cells): makes it possible to introduce a gene

O=C(NCCCNc1nc(Nc2cccc(NC(=O)N3CCCC3)c2)ncc1I)c1cccs1 [compound A, N-[3-[[5-iodo-4-[[3-[(2-thienylcarbonyl)amino]propyl]amino]-2-pyrimidinyl]amino]phenyl]-1-pyrrolidinecarboxamide]
improvement in gene expression by compound A used in combination with a gene transfer vector (RAW264.7 cells; [4]): improvement in the gene expression was confirmed | improvement in gene expression by compound A used in combination with a gene transfer vector (RAW264.7 cells; Example 17, in combination with the composition of the present invention, Lipofectamine LTX&PLUS reagent, FuGENE HD transfection reagent, or Polyethylenimine Max): improvement in gene expression was confirmed | improvement in gene expression by compound A used in combination with a gene transfer vector (K562 cells): improvement in the gene expression was confirmed | improvement in gene expression by compound A used in combination with a gene transfer vector (A549 cells [1]; [4]): improvement in the gene expression was confirmed

Sericin
Luciferase gene expression level (relative value) (NIH-3T3 cells; Example 13, Sericin concentration 0 mg/mL (PBS), with ½% sorbitan sesquioleate and 1 mg/mL protamine sulfate, 15 μL/well): 346 | Luciferase gene expression level (relative value) (NIH-3T3 cells; Example 13, Sericin concentration 3 mg/mL, with ½% sorbitan sesquioleate and 1 mg/mL protamine sulfate, 15 μL/well): 761,785 | Luciferase gene expression level (relative value) (NIH-3T3 cells; Example 13, Sericin concentration 5 mg/mL, with ½% sorbitan sesquioleate and 1 mg/mL protamine sulfate, 15 μL/well): 729,703 | Luciferase gene expression level (relative value) (NIH-3T3 cells; Example 13, Sericin concentration 20 mg/mL, with ½% sorbitan sesquioleate and 1 mg/mL protamine sulfate, 15 μL/well): 762,661 | Luciferase gene expression level (relative value) (NIH-3T3 cells; Example 13, Sericin concentration 30 mg/mL, with ½% sorbitan sesquioleate and 1 mg/mL protamine sulfate, 15 μL/well): 458,447 | Luciferase gene expression level (relative value) (NIH-3T3 cells; Example 13, Sericin concentration 50 mg/mL, with ½% sorbitan sesquioleate and 1 mg/mL protamine sulfate, 15 μL/well): 24,194 | Luciferase gene expression level (relative value) (NIH-3T3 cells; Example 13, Sericin concentration ¼ mg/mL, with ½% sorbitan sesquioleate and 1 mg/mL protamine sulfate, 15 μL/well): 77,190 | Luciferase gene expression level (relative value) (NIH-3T3 cells; Example 13, Sericin concentration ½ mg/mL, with ½% sorbitan sesquioleate and 1 mg/mL protamine sulfate, 15 μL/well): 285,344 | gene expression compared with the case where sericin was not used (NIH-3T3 cells; Example 13, ¼ to 50 mg/mL sericin): gene expression was improved

sorbitan sesquioleate
Luciferase gene expression level (relative value) (NIH-3T3 cells; [3]): makes it possible to introduce a gene | gene expression (NIH-3T3 cells; Example 14, 1/50 to 5/2% sorbitan sesquioleate): gene expression was observed | Luciferase gene expression level (relative value) (NIH-3T3 cells; Example 14, Sorbitan sesquioleate concentration 1/2%, with 10 mg/mL sericin and 1 mg/mL protamine sulfate, 15 μL/well): 1,349,057 | Luciferase gene expression level (relative value) (NIH-3T3 cells; Example 14, Sorbitan sesquioleate concentration 1/10%, with 10 mg/mL sericin and 1 mg/mL protamine sulfate, 15 μL/well): 291,463 | Luciferase gene expression level (relative value) (NIH-3T3 cells; Example 14, Sorbitan sesquioleate concentration 1/50%, with 10 mg/mL sericin and 1 mg/mL protamine sulfate, 15 μL/well): 887 | Luciferase gene expression level (relative value) (NIH-3T3 cells; Example 14, Sorbitan sesquioleate concentration 5/2%, with 10 mg/mL sericin and 1 mg/mL protamine sulfate, 15 μL/well): 425,949 | Luciferase gene expression level (relative value) (Jurkat cells): makes it possible to introduce a gene

protamine sulfate [component C]
Luciferase gene expression level (relative value) (NIH-3T3 cells; [5]): gene transfer was observed | gene transfer (green fluorescent protein TurboGFP observed with a fluorescence microscope) (A549 cells [2]): Almost no gene transfer | gene transfer (green fluorescent protein TurboGFP observed with a fluorescence microscope) (THP-1 cells): Almost no gene transfer | Luciferase gene expression level (relative value) (A549 cells [1]; [5]): gene transfer was observed
